Laboratory results as given in patent US20210301038A1, “POLYSIALIC ACID AND DERIVATIVES THEREOF, PHARMACEUTICAL COMPOSITION AND METHOD OF PRODUCING POLYSIALIC ACID” (Medizinische Hochschule Hannover (MHH), priority 2018, published 2021).

Columns and labels:
5×FAD mice = assay: Recency test (increased difficulty) in 5×FAD mice; format: in vivo, mouse; conditions: intranasal, 0.5 mg/kg DP12 or equimolar, 2 hours before test; 90 min intervals
Description: The recency test comprised of two encoding phases followed by a retrieval phase (modified from Nelson et al., 2011). The interval between the encoding phases was 1 h, and the interval between the second encoding phase and the retrieval phase was 10 min, except for experiments in 5×FAD mice when both intervals were 90 min to make the task more difficult. In the first encoding phase, animals were placed into the open field arena and allowed to explore a pair of identical objects for 10 min. Then, a different pair of identical objects was presented in the second encoding phase (10 min total exploration time). During the retrieval phase, two different objects, one object from each encoding phase, were placed into the apparatus and animals were given 10 min to explore them.
Animals were randomly assigned to treatment groups using a randomized block design to counterbalance differences in age. The time of the day when tests were performed for different animals was also counterbalanced between treatment groups using a randomized block design. All measurements and statistical analyses were performed performed blindly, i.e. the tubes containing drugs/vehicle were coded. Exploration was defined as the animal approaching the object at a distance of less than 2 cm. The animal climbing onto the object with both hind- and forelimbs was not considered as exploration. In the same trial, objects were counterbalanced, and between trials, the placements of novel and familiar objects were changed. The objects used in the novel object recognition test were not employed in the recency test. Novelty detection was evaluated by calculating the discrimination ratio as follows: [novel object time−familiar object time]/[novel object time+familiar object time]×100%. In the recency test, the discrimination ratio was calculated as follows: [least recent object time−most recent object time]/[least object time+most recent object time]×100%. Unreliable measurements (about 10%), when animals spent in total ≤10 s near to both objects, were excluded from analysis.
As the recency test was consistently used for analysis of DP12 effects in other mouse models, it was further investigated whether 13- to 14-month-old 5×FAD mice are impaired in this form of memory. In this series of experiments, the intervals between each session during recency test were increased to 90 min to increase the difficulty to recall the temporal order of the two objects shown in the arena (FIG. 12(A)). […] To verify whether DP12 or avDP10-9OAc may improve cognitive function in the 5×FAD model of AD, these compounds or a vehicle (H2O) were intranasally delivered in the same cohort of 5×FAD mice before multiple recency test sessions (separated by 4 day-interval). The numbers of mice in each treatment group during one session were counterbalanced and each mouse received in a random order both drugs and the vehicle. […] In contrast, vehicle-treated 5×FAD mice explored the two objects equally (FIG. 12(C)).

[1] = tested on: dissociated hippocampal cultures (primary neural cells); assay: MTT assay of neural cell viability; format: cell-based, mouse; conditions: 30 to 1000 nM, 48 hours, from 10th day in vitro; DP10 effect at 30, 100 and 300 nM
Description: Primary hippocampal cells were dissociated from embryonic mice on embryonic day 18. To prepare the primary neural cultures, pregnant C57/BL6J mice were sacrificed by cervical dislocation. Embryos were decapitated, and the hippocampi isolated from brains under sterile conditions and dissected. Enzymatic digestion by 0.25% trypsin/EDTA solution was followed by separation of the cells in serum-containing medium via trituration (10 passes, 1 ml pipette). The primary cells were seeded onto 96-well plates coated with 100 μg/ml poly-lysine and 20 μg/ml laminin. The plating density was 20,000 cells per well. First, 200 μl Dulbecco's modified Eagle's medium (DMEM) was applied per well (supplemented with 1% penicillin-streptomycin and 1% L-glutamine and 2% B27). After incubation for 2 h at 37° C./5% CO2, the medium was exchanged with the pre-warmed Neurobasal medium including 1% penicillin-streptomycin, 1% L-glutamine, and 2% B27. The cells—predominantly neurons and astrocytes—were incubated at 37° C. in 5% CO2 humidified atmosphere for 10 days before administration of reagents.
The assay was performed as described elsewhere with minor modifications (Khalid et al., 2018). Primary neural cells (see above) grown in a 96-well plate were exposed to drugs/vehicles for 48 h at 37° C./5% CO2. After aspiration of culture media, a washing was done with 100 μl phosphate buffered saline (PBS, pH=7.2). Then, PBS was completely removed, and 100 μl phenol red-free pre-warmed Neurobasal media and 50 μl MTT solution (3-(4,5-dimethylthiazol-2-yl)-2,5-diphenyltetrazolium bromide, 5 mg/ml; dissolved in PBS) were added to each well and plates were incubated for 4 h in an incubator. […] DMSO destroyed the cells and released the formazan, which was detected by optical density value at 560 nm, measured using a plate reader. Optical density values for wells containing cells were corrected by subtracting values measured in cell-free wells prepared and treated in the same way as wells containing control cells.

[2] = tested on: C57BL/6J mice with intra-mPFC endoNF injection; assay: Novel object recognition test before and after intra-mPFC endoNF injection; format: in vivo, mouse; conditions: 30 min before encoding; sarcosine 600 mg/kg i.p. (d2); DP12 (d5) and DP1 (d6) 1 mg/kg intranasally
Description: Guide cannulas were fabricated using stainless steel tubing with outer/inner diameter Ø 0.711/0.483 mm (Science Products, Germany). Dummy cannulas were made from entomological pins, size 2, Ø 0.41 mm (FST, Germany). Chronic implantation of cannulas into the mPFC in mice was performed as described previously for intrahippocampal injections (Kochlamazashvili et al., 2012; Senkov et al., 2015; Senkov et al., 2006).
Acute injection of endoNF in vivo was done under a short isoflurane anesthesia. For intra-mPFC injection, we used a digitally controlled infusion system (UltraMicroPump, UMP3, and Micro4 Controller, WPI, USA) fed with a 10 μl-Hamilton syringe and NanoFil 135 μm (35 GA) beveled needle. The thin (135 μm) part of the needle went into the mouse brain during injection, whereas its thick part (430 μm) fit perfectly in the guide cannula (inside 483 μm). Injections were performed as follows: 1) a mouse was anesthetized with 1-3% isoflurane as during implantation; 2) it was put into the stereotaxic frame; 3) the dummy cannula was gently removed from the left guide cannula; 4) a NanoFil injecting needle was carefully placed inside of the guide cannula and advanced further down until reaching the marker (made with a permanent pen at the needle shank (430 μm) to visualize the point when the needle should reach the surface of the brain coming out of the guide cannula (equal to the length of guide cannula); 5) once the marker was reached, a slow (10 μm increment) step dial was used to deepen the needle into the brain; 6) endoNF (2 μg/μl) or vehicle was injected with the following settings: 250 nl per site as deep as 1.5 and 2.25 mm from the brain surface (total injection volume per hemisphere 500 nl, injection rate of 3 nl/s); 7) after injection was complete (˜5 min), the needle was left in the injection site for another 5 min and then gently removed; 8) the dummy cannula was then put back to its place; 9) the same procedure was performed for the right hemisphere. The whole injection process took approximately 20-25 min under isoflurane anesthesia, and the mice recovered rather quickly, starting to move in approximately 2-3 min after being returned to their home cages. Complete recovery of a mouse after such short anesthesia usually occurs within 3-5 min. After injection, mice were returned to their animal facility. Behavior experiments started on the day after injection at approximately the same time, so that we could perform cognitive tests 24 hours after injection.
A white open field arena (50×50×30 cm) was used in the novel object recognition task. All behavior was video recorded and analyzed automatically by software (ANY-maze, version 4.99, Stoelting Co., Wood Dale, Ill.). […]

[3] = tested on: NMDAR-EPSCs (GluN1/GluN2B receptors); assay: Evoked NMDAR-EPSCs, whole-cell patch-clamp of layer V pyramidal neurons in sham- or endoNF-treated mPFC slices; format: cell-based, mouse; conditions: endoNF-treated mPFC slices; DP1 10 μg/ml; DP5 1 μg/ml and 10 μg/ml
Description: Each mouse was quickly sacrificed by cervical dislocation. After decapitation, the brain was rapidly removed from the skull and placed in ice-cold artificial cerebrospinal fluid (aCSF) equilibrated with 95% O2/5% CO2, which was composed of the following (in mM): 250 sucrose, 24 NaHCO3, 25 glucose, 2.5 KCl, 1.25 NaH2PO4, 2 CaCl2, and 1.5 MgCl2 (osmolarity 345-350 mOsm/kg, pH 7.4). Using a VT1200S vibratome (Leica, Nussloch, Germany), coronal slices containing the prelimbic and infralimbic cortices (1.9-1.3 mm anterior to bregma) were cut 350 μm or 400 μm thick, for patch clamp and extracellular recordings, respectively, in the same sucrose-containing aCSF. Then, the slices were transferred to a slice holding chamber filled with recording aCSF (osmolarity 300-305 mOsm/kg, pH 7.4) that contained 120 mM NaCl instead of sucrose (Eckhardt et al., 2000) and was continuously gassed with 95% O2/5% CO2.
For endoNF treatment in C57BL/6J mice, slices were first allowed to recover for 20 min at room temperature (22-24° C.) in recording aCSF and were then placed in a 24-well plate to be incubated in 2 ml of aCSF without (sham) or with addition of endoNF (10 μg/ml) at 35° C. for 2 hours. The 24-well plate was installed in a water bath (ED, Julabo, Seelbach, Germany). For field excitatory postsynaptic potential (fEPSP) recordings in knockout and transgenic mice, mPFC slices were incubated in recording aCSF for >2 hours at room temperature before recordings. For patch-clamp recordings in knockout mice, slices were incubated first at 35° C. for 20 min and then at room temperature for >30 min before recordings started. The aCSF was continuously gassed with 95% O2/5% CO2 during all incubation steps and recordings.
For whole-cell patch-clamp recordings, layer V pyramidal neurons were visualized using a SliceScope Pro 6000 equipped with a 40× water-immersion objective and infrared differential interference contrast microscopy (Scientifica, Uckfield, UK). Pyramidal cells were identified by their triangular soma and long apical dendrites, and synaptically evoked excitatory postsynaptic currents (EPSCs) were recorded using patch pipettes (3-5 MQ) fabricated using borosilicate glass capillaries (wall thickness 0.315, length 100, outer diameter 1.5 mm, Hilgenberg) and a DMZ-Zeitz puller (Zeitz Instruments GmbH, Martinsried, Germany). The intracellular pipette solution contained the following (in mM): 140.7 Cs-methane-sulfonate, 5 NaCl, 1 MgCl2, 0.2 EGTA, 10 HEPES, 3 ATP-Mg, 0.3 Na-GTP, and 3.1 QX-314 (osmolarity 295 mOsm/kg, adjusted to pH 7.2 with CsOH). EPSCs were evoked by electrical pulses (0.2 ms) at 0.033 Hz via a glass pipette placed in layer II/III of the mPFC (identically to fEPSPs). Mixed EPSCs showing a fast AMPAR-mediated component and a slow NMDAR-mediated component were recorded at a −60 mV holding potential in whole-cell voltage-clamp mode in normal aCSF. The stimulation intensity was adjusted to evoke mixed EPSCs with amplitudes of approximately 300 pA. The slow NMDAR-mediated component of EPSCs was pharmacologically isolated at −60 mV in modified aCSF containing low Mg^2+ (0.1 mM) and high Ca^2+ (3.2 mM, for adjustment of divalent cation concentrations), the selective antagonist of α-amino-3-hydroxy-5-methyl-4-isoxazolepropionic acid (AMPA)/kainate receptors NBQX (10 μM), and the selective antagonist of γ-aminobutyric acid (GABA)B receptors CGP-55845 (2 μM) (Chen et al., 2003). The washout of Mg^2+ required at least 25 min. Recordings at a holding potential near the resting membrane potential allowed us to obtain stable NMDAR-EPSC recordings from pyramidal cells lasting for 1-1.5 hours. Series resistance (Rs, range 10-25 MΩ) was compensated (20-30%) and monitored continuously. Neurons in which Rs changed by more than 20% throughout the experiment were not included in the analysis. In voltage-clamp mode, membrane potential was not corrected for liquid junction potential. […]

NMDAR-mediated currents = conditions: cultured hippocampal neurons; cited from earlier work

(α(2→8)Neu5Ac)10 [DP10]
exploration of least recent versus most recent object in the retrieval phase (5×FAD mice): preference for the least recently explored object
object discrimination (discrimination ratio) compared to vehicle (5×FAD mice): significantly better in object discrimination
effect on neural cell viability [1]: strong potentiating effect

CC(=O)N[C@H]1[C@H]([C@H](O)[C@H](O)CO)OC(O)(C(=O)O)C[C@@H]1O (stereo partly drawn) [DP1, N-acetylneuraminic acid]
novel object recognition after intra-mPFC endoNF injection [2]: no effect
effect on the amplitude of NMDAR-EPSCs [3]: no effect
inhibition of NMDAR-mediated currents (NMDAR-mediated currents): do not inhibit
